These results are taken from patent US20110319495A1, “Pharmaceutical Composition for Hepatitis Treatment and Applications” (priority 2010, published 2011).

Structures are written as SMILES.

Test [1] deals with reactive oxygen species. The test is described as follows: Accumulation of reactive oxygen species in alcohol-treated HepG2 cells (DCF-DA). Format: cell-based, human. The following applies: 1, 5, 10 μg/ml, 1 h before 100 mM alcohol for 24 h; dose-dependent; effect equivalent to curcumin 10 μg/ml. The protocol: A currently available DCF-DA (dihydrodichloro-fluorescein diacetate; Sigma, USA) is used to monitor the accumulation of reactive oxygen species (ROS) in cells. In brief, the cells (1×10^7) are wetted by phosphate buffer solution, and then added into 10 μm DCF-DA for 4 h cultivation at 37° C., and then fluorescence spectrophotometer is used to measure the fluorescence (488 nm/530 nm).
(§1) The aforementioned HepG2 cells cultivated normally are grouped, and then separately cultivated 1 h together with 0, 1, 5, 10 μg/ml lucidone (0 μg/ml, negative control group) or 10 μg/ml curcumin (curcumin, a known antioxidation compound, taken as a positive control group), and then alcohol (100 mM) is added for 24 h cultivation to stimulate oxidation stress. The experiment groups and control groups are configured in Table 1:
The content of reactive oxygen species and nitric oxide in the tested culture solution of HepG2 cells is measured (refer to preferred embodiment 1 [Test of accumulation of reactive oxygen species in cells] and [Griess nitrite test]).
FIG. 3A depicts the content of reactive oxygen species of HepG2 cells in various groups, of which the fluorescence strength of DCF-DA indicates the content of reactive oxygen species. FIG. 3B depicts the generation of nitric oxide of HepG2 cells in various groups, of which nitrite generation indicates the generation of nitric oxide.

The subject of test [2] is mouse suffered by hepatitis arising from alcohol. Briefly: Content of GSH and MDA in serum and tissue, mouse model of hepatitis arising from alcohol. Format: in vivo. Conditions: lucidone 100 mg/Kg/day i.p. 7 d, mean ± SD; for GSH in tissue / MDA in tissue: liver tissue. The source says:
(§2) The experimental mouse is selected from 4-week male mouse of ICR family (25±5 g) in Charles River (Taipei, Taiwan). Prior to the experiment, the experimental mouse will be bred for at least 1 week in constant temperature lab conditions wherein unlimited feedstock and water are supplied. All animals shall be governed by the Guide for the Care and Use of Laboratory Animals and relevant animal protection acts of Taiwan, and approved by local ethics commissions. 80% alcohol or lucidone is applied to aforementioned experimental mouse (1 mL/Kg) by following methods: alcohol is applied orally, or by intra-peritoneal injection, or alcohol and lucidone are applied orally, or by intra-peritoneal injection.
A currently available lipid peroxidation test kit (Oxford Biomedical Research, Oxford, Mich., USA) is used to measure the degree of lipid peroxidation. In brief, the cells are lysed by 200 μl cell lysis buffer. Then, 140 μl cell lysate is mixed with 455 μl N-methyl-2-phenylindole dissolved in acetonitrile and 105 μl acid (HCL, 37%), and placed in 45° C. for 60 m. malondialdehyde (MDA) is a main product of polyunsaturated fatty acid lysed by peroxidation. In this experiment, N-methyl-2-phenylindole is used to generate stable chromophore through reaction with MDA, and the formation of MDA is measured under maximum absorbance wavelength 535 nm as an index of measuring lipid peroxidation. Similarly, the degree of lipid peroxidation in the serum of experimental mouse can be measured.
A currently available GSH-96-well plate colorimetric GSH assay kit, Oxis International, Foster City, Calif., USA) is used to measure the content of glutathione (GSH). In brief, 40 μl chromogenic reagent dissolved in acid is added into 40 μl non-protein hepatocyte lysate, and added with 40 μl NaOH (30%), 40 μl color developer and buffer solution to form a mixed solution. Next, the mixed solution is shaken gently, and placed in room temperature for 10 m. […] Similarly, the content of glutathione in the experimental mouseserum can be measured.
(§3) The aforementioned mouse are grouped and then applied with lucidone for 7 d at a dose of 100 mg/Kg/day by means of intra-peritoneal injection, and at the 7th day, applied with lucidone and then applied with 80% alcohol orally or by intra-peritoneal injection at a dose of 1 ml/Kg, one time every 12 h with 3 doses; of which, the mouse of the control group is fed with 1% DMSO dissolved in saline solution.
Take out the serum and liver tissue of mouse suffered by hepatitis arising from alcohol as per aforementioned experimental design, and measure GSH content and lipid peroxidation degree as per the experimental methods in preferred embodiment 1.

Test [3] has as its system HepG2 cells. The test is described as follows: Glutathione content in alcohol-treated HepG2 cells. The following applies: lucidone 1, 5, 10 μg/ml or curcumin 10 μg/ml, 1 h before 100 mM alcohol for 24 h. In kind it is cell-based, human.
Method: A currently available GSH-96-well plate colorimetric GSH assay kit, Oxis International, Foster City, Calif., USA) is used to measure the content of glutathione (GSH). In brief, 40 μl chromogenic reagent dissolved in acid is added into 40 μl non-protein hepatocyte lysate, and added with 40 μl NaOH (30%), 40 μl color developer and buffer solution to form a mixed solution. Next, the mixed solution is shaken gently, and placed in room temperature for 10 m. Finally, a spectrometer (ELISA microplate reader, μQuant, Bio-Tek instruments, Inc., Winooski, Vt., USA) is used to detect the absorbance at wavelength 412 nm, and compared with a GSH absorbance curve of known concentration to judge the content of GSH. Similarly, the content of glutathione in the experimental mouseserum can be measured.
Test [4] deals with Nrf-2 and ARE. The test is described as follows: Bonding activity of Nrf-2 and ARE in HepG2 cells (EMSA). The following applies: 1, 5, 10 μg/ml with 100 mM alcohol, dose-dependent. In kind it is cell-based, human.
Test [5] concerns Nrf-2. Briefly: Nrf-2 translocation in HepG2 cells (Western blotting of cytoplasm and nuclear extracts). Conditions: 1, 5, 10 μg/ml with 100 mM alcohol. Format: cell-based, human. The protocol:
The cytosolic extracts and nuclear extracts are prepared as per the known test procedures using the currently available test kit (protocol #78833 Nuclear and Cytoplasmic Extraction Reagent kit). And, the common protein assay reagent (Bio-Rad) is used to measure the concentration of protein.
Western blotting is implemented as per the known test procedures in the relevant field, of which said anti-body and enhanced chemiluminescene regents (ECL, Pierce) are used for immunoblotting, and then an imaging device (Viogene Biotek, Sunnyvale, Calif., USA) is used for observing the results.
The aforementioned HepG2 cells cultivated normally are grouped, and then separately cultivated 1 h together with 0, 1, 5, 10 μg/ml lucidone (0 μg/ml, negative control group) or 10 μg/ml curcumin (curcumin, a known antioxidation compound, taken as a positive control group), and then alcohol (100 mM) is added for 24 h cultivation to stimulate oxidation stress. […]
HO-1 is one of ARE-driven antioxidant genes. […] In this experiment, the content of Nrf-2 in cytoplasm and nuclear extracts of tested HepG2 cells, as well as the bonding activity of Nrf-2 and ARE is measured (refer to relevant experimental methods in preferred embodiment 1).
Said content refers to the color strength of the result from Western blotting calculated by typical software in the field.

For test [6], the system named is nitric oxide. Briefly: Griess nitrite test, nitric oxide generation in alcohol-treated HepG2 cells. Format: cell-based, human. The following applies: 1, 5, 10 μg/ml, 1 h before 100 mM alcohol for 24 h; dose-dependent; effect equivalent to curcumin 10 μg/ml. The protocol:
(§4) According to the principle of Griess reaction, nitrite accumulated from the supernatant liquid cultivated by cells and mouse serum is measured to obtain indirectly the generation of nitric oxide. The supernatant liquid cultivated by cells and tumor necrosis factor-α in the serum are measured using the currently available human TNF-αELISA kit. In brief, aforementioned HepG2 cells of […] are separately cultivated in 96-well plate, and then added with lucidone and alcohol to cultivate them for 24 h. Next, the culture solution is diluted by the work reagent of aforementioned kit by a percentage of 1:2. Then, every 100 μl diluted culture solution is subject to ELISA reaction as per the operating instruction of aforementioned kit, and then a spectrometer is used to detect the absorbance at wavelength 450 nm so as to judge the content of tumor necrosis factor-α; in the mouse experiment, the mouse serum is diluted properly and then the content of tumor necrosis factor-α is tested as per the operating instruction of aforementioned kit. […]
The content of reactive oxygen species and nitric oxide in the tested culture solution of HepG2 cells is measured (refer to preferred embodiment 1 [Test of accumulation of reactive oxygen species in cells] and [Griess nitrite test]). […]

Test [7] has as its system HepG2 cells. Briefly: Lipid peroxidation degree (MDA) in alcohol-treated HepG2 cells. Format: cell-based, human. The following applies: lucidone 1, 5, 10 μg/ml or curcumin 10 μg/ml, 1 h before 100 mM alcohol for 24 h.
Test [8] deals with HO-1. The test is described as follows: HO-1 mRNA expression in HepG2 cells (real-time PCR). In kind it is cell-based, human. The following applies: lucidone 1, 5, 10 μg/ml or curcumin 10 μg/ml, with 100 mM alcohol, standardized to β-actin.
Method: Trizol reagent (Invitrogen Life Technologies, Carlsbad, Calif., USA) is used to extract total RNA of cells. One step RT-PCR is used for reverse transcription of mRNA of HO-1 and β-actin into cDNA, then real time-PCR (Applied Biosystems) is applied to real-time expression of HO-1 and β-actin.
Said real-time PCR is used to detect PCR products by combining DNA and SYBR Green. The thermal cycle is: 3 m at 96° C.; 1 m at 96° C. in 40 cycles, 30 s at 50° C. and 90 s at 72° C.
Test [9] has as its system tumor necrosis factor-α. Briefly: Content of TNF-α in culture solution of alcohol-treated HepG2 cells (ELISA). In kind it is cell-based, human. Conditions: 1, 5, 10 μg/ml, 1 h before 100 mM alcohol for 24 h; dose-dependent; effect equivalent to curcumin 10 μg/ml. The protocol:
as §4
(§5) The content of ALT, AST and tumor necrosis factor-α (TNF-α) in the tested culture solution of HepG2 cells is measured (refer to preferred embodiment 1 [test of ALT and AST concentration] and [measurement of tumor necrosis factor-α ]).

Test [10] concerns HepG2 cells. Briefly: Content of ALT and AST in culture solution of alcohol-treated HepG2 cells. In kind it is cell-based, human. Conditions: 1, 5, 10 μg/ml, 1 h before 100 mM alcohol for 24 h; dose-dependent; effect equivalent to curcumin 10 μg/ml. The protocol: (§6) A currently available test kit (Randox Laboratories, Antrim, UK) is applied to test the concentration of culture solution after cultivation of HepG2 cells as well as the concentration of ALT and AST in mouse serum. In brief, the experiment is designed to obtain the culture solution after cultivation of HepG2 cells and the serum of experimental mouse by the recommended test procedures.
as §1, §5

Test [11] has as its system mouse suffered by hepatitis arising from alcohol. Briefly: Content of ALT, AST, nitric oxide and TNF-α in serum, mouse model of hepatitis arising from alcohol. In kind it is in vivo. Conditions: lucidone 100 mg/Kg/day i.p. 7 d, mean ± SD.
From the text: as §2, §6
According to the principle of Griess reaction, nitrite accumulated from the supernatant liquid cultivated by cells and mouse serum is measured to obtain indirectly the generation of nitric oxide. The supernatant liquid cultivated by cells and tumor necrosis factor-α in the serum are measured using the currently available human TNF-αELISA kit. In brief, aforementioned HepG2 cells of […] are separately cultivated in 96-well plate, and then added with lucidone and alcohol to cultivate them for 24 h. Next, the culture solution is diluted by the work reagent of aforementioned kit by a percentage of 1:2. Then, every 100 μl diluted culture solution is subject to ELISA reaction as per the operating instruction of aforementioned kit, and then a spectrometer is used to detect the absorbance at wavelength 450 nm so as to judge the content of tumor necrosis factor-α; in the mouse experiment, the mouse serum is diluted properly and then the content of tumor necrosis factor-α is tested as per the operating instruction of aforementioned kit.
as §3
Take out the serum of mouse suffered by hepatitis arising from alcohol as per aforementioned experimental design, and determine the content of ALT, AST, nitric oxide and TNF-α by the experimental methods in preferred embodiment 1.

Test [12] has as its system HO-1. The test is described as follows: HO-1 protein expression in HepG2 cells (Western blotting). In kind it is cell-based, human. Conditions: lucidone 1, 5, 10 μg/ml or curcumin 10 μg/ml, with 100 mM alcohol.
Where [13] appears, read: intra-peritoneal injection alcohol.
Where [14] appears, read: intra-peritoneal injection alcohol (80%, 1 ml/Kg, 3 doses every 12 h).
Setting [15] is: orally taking alcohol (80%, 1 ml/Kg, 3 doses every 12 h).

For the compound `COC1=CC(=O)C(=C(O)/C=C/c2ccccc2)C1=O` [lucidone], the “generation of reactive oxygen species caused by alcohol” value in [1] is “reduced the generation”. For the same compound, in test [2] (setting [13]), the GSH in tissue is 173.9 ± 58.5 nmol/mg of protein, the MDA in tissue is 20.9 ± 0.71 nmol/mg of protein, the GSH in serum is given as 42.9 ± 1.8 nmol/mg of protein and the MDA in serum was 16.2 ± 0.77 nmol/mg of protein. Besides, in test [2] (orally taking alcohol), the GSH in tissue is given as 261.2 ± 11.1 nmol/mg of protein, the MDA in tissue is reported as 69.2 ± 0.67 nmol/mg of protein, the GSH in serum is on record as 30.5 ± 1.0 nmol/mg of protein and the MDA in serum is 19.5 ± 0.41 nmol/mg of protein. In addition, the “decline of GSH concentration in the cells caused by alcohol” value in [3] is listed as “can be avoided”. In addition, the “bonding activity of Nrf-2 and ARE” value in test [4] is recorded as “improve significantly the bonding activity”. The “Nrf-2 translocation (Nrf-2 content in nucleus)” value in test [5] is “facilitate Nrf-2 translocation”. Besides, in [6], the “generation of nitric oxide caused by alcohol (nitrite)” value is given as “reduced the generation”. In addition, the “lipid peroxidation in the cells caused by alcohol” value in test [7] is “reduce greatly”. Besides, the “expression of HO-1 mRNA in the cells” value in [8] is reported as “substantial increase”. In test [9], the “content of TNF-α in cell culture solution” value is recorded as “reduced the phenomenon of growing content”. In test [10], the “content of ALT in cell culture solution” value was “reduced the phenomenon of growing content” and the “content of AST in cell culture solution” value was “reduced the phenomenon of growing content”. In test [11] (setting [14]), the ALT in serum came to 103.0 ± 65.6 U/L, the AST in serum is 139.6 ± 12.2 U/L, the TNF-α in serum is on record as 3.91 ± 0.28 ng/mL and the “nitric oxide in serum” value turned out to be 102.3 ± 0.52 nM/mL. Further, in test [11] (setting [15]), the ALT in serum came out at 875.4 ± 57.2 U/L, the AST in serum was 508.0 ± 31.7 U/L, the TNF-α in serum is 10.0 ± 0.28 ng/mL and the “nitric oxide in serum” value worked out at 370.6 ± 0.53 nM/mL. Besides, in [12], the “expression of HO-1 protein in the cells” value was “substantial increase”.

With `COc1cc(/C=C/C(=O)CC(=O)/C=C/c2ccc(O)c(OC)c2)ccc1O` [curcumin, reference compound], in test [3], the “decline of GSH concentration in the cells caused by alcohol” value was “can be avoided”. The “lipid peroxidation in the cells caused by alcohol” value in test [7] is given as “reduce greatly”. The “expression of HO-1 mRNA in the cells” value in test [8] is recorded as “substantial increase”. The “expression of HO-1 protein in the cells” value in [12] is listed as “substantial increase”.
